In patent US11173140B2, “Dosing regimens of PKC activators” (COGNITIVE RESEARCH ENTERPRISES, INC., priority 2015, dated 2021):

Molecular target: T1, PKC-ε (Mus musculus, UniProt P16054)
T1 construct: from tissue; host or cells: brain of C57B/6 male mice
T1 sequence (P16054 1-737): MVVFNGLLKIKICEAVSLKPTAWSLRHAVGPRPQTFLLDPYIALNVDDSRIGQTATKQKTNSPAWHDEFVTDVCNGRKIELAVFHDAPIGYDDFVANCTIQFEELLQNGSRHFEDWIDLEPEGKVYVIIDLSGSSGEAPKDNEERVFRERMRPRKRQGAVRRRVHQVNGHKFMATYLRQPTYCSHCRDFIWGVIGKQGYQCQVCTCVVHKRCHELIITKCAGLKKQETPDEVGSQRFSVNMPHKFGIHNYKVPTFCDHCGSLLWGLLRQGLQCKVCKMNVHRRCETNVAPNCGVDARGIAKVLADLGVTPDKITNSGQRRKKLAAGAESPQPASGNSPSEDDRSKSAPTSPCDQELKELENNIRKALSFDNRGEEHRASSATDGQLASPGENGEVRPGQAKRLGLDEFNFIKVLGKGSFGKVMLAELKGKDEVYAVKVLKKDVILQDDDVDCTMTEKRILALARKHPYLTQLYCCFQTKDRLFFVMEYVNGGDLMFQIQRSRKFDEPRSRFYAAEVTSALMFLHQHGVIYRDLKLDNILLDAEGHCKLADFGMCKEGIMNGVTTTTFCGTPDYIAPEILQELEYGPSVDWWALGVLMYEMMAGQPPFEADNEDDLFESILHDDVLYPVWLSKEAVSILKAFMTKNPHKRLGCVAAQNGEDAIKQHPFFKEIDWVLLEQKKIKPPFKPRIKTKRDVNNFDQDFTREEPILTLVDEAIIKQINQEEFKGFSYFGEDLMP
Experiment: Total PKC (PKC-ε) level / downregulation in brain after i.v. bryostatin dosing regimens
Format: in vivo
Details: mice
Experimental: FIGS. […] (A) Downregulation of brain PKCε in mice after intravenous administration of bryostatin at doses of 10 μg/m^2, 15 μg/m^2, and 25 μg/m^2 for 1-6 consecutive weeks. (B) Downregulation of brain PKCε in mice after intravenous administration of bryostatin at two different doses (i) 2×25+2 μg/m^2, and (ii) 25 μg/m^2. Dosing regimen is disclosed along the abscissa.
Mouse studies were performed using bryostatin-i in accordance with the protocol described below. The following metrics were used to evaluate dosing regimens: induction of brain postsynaptic anchoring protein PSD-95, upregulation of BDNF levels in brain, minimal downregulation of PKC-ε levels, and elevation of brain and plasma concentrations of bryostatin. Groups of 2-3 mice were formed and housed in an approved research animal facility. Water was give ad libitum. A first study involved three groups of mice with animals in each group dosed weekly for 1, 2, 3, or 6 consecutive weeks. Each group had its own control group containing the same number of mice. In this study, mice in the first, second and third groups received an intravenous (i.v.) injection of 10 μg/m^2, 15 μg/m^2, and 25 μg/m^2 dose of bryostatin respectively. For each dose, mice in that group received a single injection of bryostatin weekly for predetermined number of consecutive weeks. Following dosing, mice were sacrificed and the blood and brain of each animal was collected for further analysis.
Cells were harvested in homogenizing buffer containing 10 mM Tris-Cl (pH 7.4), 1 mM PMSF (phenylmethylsulfonyl fluoride), 1 mM EGTA, 1 mM EDTA. 50 mM NaF, and 20 μM leupeptin and were lysed by sonication. The homogenate was centrifuged at 100,000×g for 15 min at 4° C. to obtain the cytosolic fraction (supernatant) and membrane (pellet). The pellet was resuspended in the homogenizing buffer by sonication. Protein concentration was measured using the Coomassie Plus (Bradford) Protein Assay kit (Pierce, USA). Following quantification, 20 μg of protein from each sample was subjected to SDS-PAGE analysis in 4-20% gradient Tris-Glycine gel (Invitrogen, USA). The separated protein was then transferred to nitrocellulose membrane. The membrane was blocked with BSA at room temperature for 15 min and was incubated with primary antibody over night at 4° C. After the incubation, it was washed three times with TBS-T (Tris Buffered saline-Tween 20) and further incubated with alkaline phosphatase conjugated secondary antibody (Jackson Immunoresearch Laboratories. USA) at 1:10,000 dilution for 45 min. The membrane was finally washed three times with TBS-T and developed using the 1-step NBT-BCIP substrate (Pierce, USA). Western Blot was imaged in the Image Quant RT-ECL (GE Life Sciences, Piscataway, N.J.) and densitometric quantification was performed using the IMAL software (Blanchette Rockefeller Neurosciences institute, Morgantown, W. Va.). For translocation assays, PKC activation was represented as the percentage of total protein in the membrane (membrane/cytosol+membrane). […]
C57B/6 male mice weighing between 19-21 grams were obtained from Charles River and housed in cages, 1 mouse/cage in a vivarium at the Blanchette Rockefeller Neurosciences institute. Animals were allowed access to water ad libitum.
In these studies, bryostatin was administered intravenously (i.v.) by injection into the tail vein of a mouse. Stock solutions of bryostatin were prepared in dimethyl sulfoxide (DMSO). Prior to administration to a mouse, the stock DMSO solution of bryostatin was diluted to a predetermined concentration by dilution with phosphate buffered saline/saline (PBS/saline).
Three different dosing regimens (injection schedules) were compared. The dosing regimens tested were weekly dosing, dosing every other week (alternating weeks), and spaced or intermittent dosing. […]

CCC/C=C/C=C/C(=O)O[C@H]1/C(=C/C(=O)OC)C[C@H]2C[C@H]([C@@H](C)O)OC(=O)C[C@H](O)C[C@@H]3C[C@H](OC(C)=O)C(C)(C)[C@](O)(C[C@@H]4C/C(=C/C(=O)OC)C[C@H](/C=C/C(C)(C)[C@]1(O)O2)O4)O3 [Bryostatin-1]
PKC-ε downregulation (10 μg/m^2 weekly, total of 6 consecutive weeks): appeared to result in downregulation
PKC-ε downregulation (25 μg/m^2, continued dosing, 1 on/1 off and 2 on/1 off regimens): additional downregulation occurred
PKC downregulation (25 μg/m^2, rest intervals increased to three weeks (3 on/3 off)): significantly reduced PKC downregulation
PKC-ε downregulation in brain (25 μg/m^2, three consecutive weekly doses, versus lower doses): did not produce more PKC-ε downregulation
PKC (% of Control), total PKC level (cage 4: 25 μg/m^2 i.v. once weekly, 3 weeks, 24 h): 84.841 % of Control
PKC (% of Control), total PKC level (cage 5: 25 μg/m^2 i.v., 3 on/3 off/3 on (9 weeks), 24 h): 78.2 % of Control
PKC (% of Control), total PKC level (cage 6: 10 μg/m^2 i.v. once weekly, 3 weeks, 24 h): 95.197 % of Control
PKC (% of Control), total PKC level (cage 8: 10 μg/m^2 i.v. once weekly, 6 weeks, 24 h): 80.441 % of Control
PKC (% of Control), total PKC level (cage 9: 25 μg/m^2 i.v., alternating, weeks 1 and 3, 24 h): 63.02 % of Control
PKC (% of Control), total PKC level (cage 10: 25 μg/m^2 i.v., alternating, weeks 1, 3, 5, 7, 9, 24 h): 59.11 % of Control
PKC (% of Control), total PKC level (cage 11: 25 μg/m^2 i.v., weeks 1 and 2, collection week 3 (7 d delay)): 56.7 % of Control
PKC (% of Control), total PKC level (cage 12: 25/20 μg/m^2 i.v., injections weeks 1, 2, 4, 6, 8, collection week 9 (7 d delay)): 49.92 % of Control
PKC (% of Control), total PKC level (cage 18: 15 μg/m^2 i.v. once weekly, 3 weeks, 24 h): 66.430 % of Control
PKC (% of Control), total PKC level (cage 22 (regimen not listed in Tables 2/3)): 89.206 % of Control
PKC (% of Control), total PKC level (cage 24: 25 μg/m^2 i.v. once weekly, 2 weeks, 24 h): 96.723 % of Control
